Converted amounts (≈) assume the structure as drawn. “Also recorded” adds a separate entry of the source.
How the values were obtained:
[1] = tested on: LnCap; assay: MTT dye assay at 72 hrs, LnCap; type: cell-based, human
[2] = tested on: Tu138 cells; assay: Tu138 TUNEL assay for apoptosis; type: cell-based, human
Description: (§1) At the end of either 24 or 48 hours, cells were trypsinized and washed with the culture medium. For cell cycle measurements, cells were mixed with 0.5 ml of 0.1% propidium iodide solution (New Concepts Scientific Ltd. ON) containing 0.1% sodium citrate and 0.1% NP-40. RNase (1 μg) was added to each sample and cells were incubated at 4° C. for 30 minutes. At least 1×10^4 cells were acquired on a precalibrated FACScan (Beckton Dickinson, Calif.) flow cytometer. For precalibration “DNA QC” (Becton Dickinson, Calif.) kit was utilized. The acquired cells were then subjected to cell cycle analysis by the use of “Modfit LT” software (Beckton Dickinson, Calif.). For measurements of apoptosis, In Situ Cell Death Detection Kit (Boehringer Manheim, Ind.) followed by flow cytometry analysis was utilized.

[3] = tested on: PC-3; assay: MTT dye assay at 72 hrs, PC-3; type: cell-based, human
[4] = tested on: Tu138 cells; assay: Tu138 cell cycle measurements (flow cytometry); type: cell-based, human; conditions: for effect on cell cycle progression: ceramide 25 μg/ml alone, 24 or 48 hours, n=4; for cells blocked in the G2-M phase: paclitaxel 600 ng/ml
Description: as §1

[5] = tested on: Jurkat cells; assay: Jurkat cell cycle analysis (propidium iodide, FACScan); type: cell-based, human; conditions: 24 hours
Text: Cell Cycle Analysis. […] Pie graphs (FIGS. 3A–F) were generated and normalized to a control value of 100%.

[6] = tested on: Jurkat cells; assay: Jurkat cell proliferation assay (3H-thymidine uptake); type: cell-based, human
Description: Cell Proliferation Assays. […] DNA synthesis was assessed by the addition of ^3H-thymidine (1 μCi/well; specific activity—6.7 Ci/mmol; ICN Pharmaceuticals, Costa Mesa, Calif.) uptake 24 hours before the end of the 72 hour growth period at a final concentration of 1 μCi/well.

[7] = tested on: RWP-2; assay: MTT dye assay at 72 hrs, RWP-2; type: cell-based, human
[8] = tested on: tumor cell lines; assay: MTT dye assay at 72 hrs, tumor cell lines tested (ID50); type: cell-based, human
[9] = tested on: Tu138 cells; conditions: for Tumor Size (mm^2) at Week 5 / reduction in tumor growth / tumor size vs vehicle control: paclitaxel 120 μg and/or ceramide 500 μg in cremophore; for Tumor Size (mm^2) at Week 5: s.c. near tumor thrice weekly from day 4 for 5 weeks; for reduction in tumor growth / tumor size vs vehicle control: s.c., week 5 (Table 3)
Text: The vehicle control consisted of cremophore only at the concentration utilized in the combination treatment.
In a separate experiment nude mice were implanted with 1−2×10^6 Tu138 cells. […] The vehicle control consisted of cremophore only at the concentration utilized in the combination treatment.

[10] = tested on: Jurkat; assay: MTT dye assay at 72 hrs, Jurkat; type: cell-based, human
[11] = tested on: HT29; assay: MTT dye assay at 72 hrs, HT29; type: cell-based, human
[12] = tested on: Jurkat cells; assay: Jurkat TUNEL assay for apoptosis; type: cell-based, human; conditions: 48 hours
Description: Terminal deoxynucleotide transferase (TdT) mediated deoxyuridine triphosphate (dUTP) nick-end labeling (TUNEL) assay. […] At 24 and 48 hours, DNA strand breaks were labeled with TUNEL assay (In Situ Cell Death Detection Kit, Fluorescein; Boehringer Mannheim, Indianapolis, Ind.), and cellular apoptosis was measured by flow cytometry.

[13] = tested on: Tu138 cells; assay: Tu138 MTT dye assay (cytotoxicity, isobologram); conditions: for cytotoxicity: 3 days of culture; for cell cytotoxicity (time kinetics): ceramide 25 μg/ml alone; for ED50 (cytotoxicity, MTT): n=6, 3 days
Description: Tu138, an adherent squamous carcinoma cell line of the head and neck was established at U T M D Anderson Cancer Center, Houston, Tex. (20, 21) and was generously provided by Dr. Gary Clayman's laboratory. Tu138 cells were maintained routinely in T-75 culture flasks (Falcon, Inc., NJ) at a plating cell density of 0.1×10^6 per 75 sq. cm. surface area in complete D-MEM/F-12 culture medium (10 ml) containing 10% fetal bovine serum (FBS, Atlanta Biologicals, Ga.), 2 mM glutamine (Gibco, NY), 50 units/mL penicillin, […] streptomycin (Gibco, NY) and 20 mM Hepes (Sigma, MO) in a 5% CO2 atmosphere at 37° C. Tu138 cells were replenished with fresh complete culture medium twice weekly until confluence.
At the indicated times (24 to 72 hours), cells were subjected to (a) tetrazolium-based dye assay for cell survival measurements, (b) flow cytometry analysis for cell cycle progression and (c) measurements of apoptosis by TUNEL assay.
(22). At the end of an incubation period of 4 hours, culture plates were centrifuged at 300 g for 2 minutes.

[14] = tested on: TU138; assay: MTT dye assay at 72 hrs, TU138; type: cell-based, human
[15] = tested on: Tu138 cell-tumor; assay: Tu138 tumor in nude mice, subcutaneous treatment near tumor site
Description: To corroborate in vitro findings Tu138 cells were planted subcutaneously on nude mice. […] Tumor size was measured once a week. All groups of mice were sacrificed on day 45 and excised tumors were weighed.

[16] = tested on: Tu138 tumor; assay: Tu138 tumor in nude mice, intraperitoneal treatment; conditions: paclitaxel 120 μg and/or ceramide 500 μg, within 4 weeks of administration
[17] = tested on: Jurkat cells; assay: Jurkat histologic evaluation (Wright's stain); type: cell-based, human; conditions: 48 hours
Description: Histologic Evaluation. […] Wright's stains of all slides were performed using an automated Hemastainer (Geometric Data, Wayne, Pa.). Slides were analyzed microscopically, photographed (Olympus BH 2, Tokyo, Japan) at 100, 200, and 400 power, and evaluated for morphological changes.

[18] = tested on: recurrent breast cancer; conditions: single agent, cited from earlier work
[19] = tested on: MCF-7; assay: MCF-7 cell cycle progression; type: cell-based, human
[20] = Homo sapiens, read-out: % Growth Inhibition
[21] = n=25, 250 mg/m^2, 24 hour infusion every 21 day interval

CCCCCCCCCCCCC/C=C/[C@@H](O)[C@H](CO)NC(=O)CCCCC [Ceramide, N-hexanoyl-D-sphingosine]
% Growth Inhibition ([1]; CERAMIDE (25 μg/nl) alone, LnCap): 25%
apoptosis (TUNEL) ([2]; ceramide 25 μg/ml alone, 24 hours): 9.7%
apoptosis (TUNEL) ([2]; ceramide 25 μg/ml alone, 48 hours): 13.6%
% Growth Inhibition ([3]; CERAMIDE (25 μg/nl) alone): 8%
effect on cell cycle progression [4]: did not significantly affect either G0–G1 or G2-M phase
effect on cell cycle progression ([4]; listed as ceramide): no significant effect
cell cycle pattern ([5]; ceramide treatment, 10% fetal bovine serum): did not differ from the non-ceramide-exposed control
[3H]thymidine uptake counts ± SD ([6]; Ceramide 25 μg/ml, Experiment 1): 378245 ± 28689 cpm
[3H]thymidine uptake counts ± SD ([6]; Ceramide 25 μg/ml, Experiment 2): 415740 ± 6168 cpm
[3H]thymidine uptake counts ± SD ([6]; Ceramide 25 μg/ml, Experiment 3): 301993 ± 67599 cpm
[3H]thymidine uptake counts ± SD ([6]; Ceramide 25 μg/ml, Experiment 4): 259230 ± 54914 cpm
[3H]thymidine uptake counts ± SD ([6]; Ceramide 25 μg/ml, Experiment 5): 189052 ± 3534 cpm
growth inhibition ([6]; ceramide added alone, all test concentrations (0 to 50 μg/ml), 10% fetal bovine serum): ≤ 6%
ceramide-mediated growth inhibition ([6]; low serum (1%)): > 99%
% Growth Inhibition ([7]; CERAMIDE (25 μg/nl) alone, RWP-2): 6%
calculated ID50 (cytotoxicity) ([8]; ceramide, approximately): 30.0 to 40.0 µg/mL
toxicity ([9]; ceramide delivered in cremophore, nude mice): no toxicity
Tumor Size (mm^2) at Week 5 [9]: 109.5 ± 14.1 mm^2
reduction in tumor growth / tumor size vs vehicle control [9]: 44.7%
% Growth Inhibition ([10]; CERAMIDE (25 μg/nl) alone): 8%
% Growth Inhibition ([11]; CERAMIDE (25 μg/nl) alone, HT29): 61%
apoptosis (TUNEL) ([12]; 12.5 μg/ml of ceramide): 0.41%
apoptosis (TUNEL) ([12]; 25 μg/ml of ceramide): 0.33%
cytotoxicity ([13]; ceramide 12.5 μg/ml): 19%
cell cytotoxicity (time kinetics) ([13]; 24 hours): 32.7%
cell cytotoxicity (time kinetics) ([13]; 72 hours): 54.5%
cytotoxicity ([13]; ceramide 25 μg/ml): 46%
ED50 (cytotoxicity, MTT) ([13]; ceramide alone): 22 ± 5 µg/mL (≈ 55.3 µM)
% Growth Inhibition ([14]; CERAMIDE (25 μg/nl) alone, TU138): 28%
tumor weight ([15]; ceramide alone 500 μg/0.2 mL s.c. thrice weekly, excised day 45): substantial reduction in tumor weight
tumor size ([15]; ceramide alone 500 μg/0.2 mL s.c. thrice weekly, week 5): slight decrease in tumor size
tumor size / tumor burden reduction in comparison to control (vehicle) [16]: no significant effect
morphological changes (Wright's stain) ([17]; ceramide 25 μg/ml, 10% serum): morphologically indistinguishable from control cells

CC(=O)O[C@H]1C(=O)[C@@]2(C)[C@H]([C@H](OC(=O)c3ccccc3)[C@]3(O)C[C@H](OC(=O)[C@H](O)[C@@H](NC(=O)c4ccccc4)c4ccccc4)C(C)=C1C3(C)C)[C@]1(OC(C)=O)CO[C@@H]1C[C@@H]2O [Paclitaxel]
inhibition at 0.6 µg/mL ([1]; Homo sapiens, LNCaP, read-out: % Growth Inhibition): 13%
apoptosis (TUNEL) ([2]; paclitaxel 600 ng/ml alone, 24 hours): 18.4%
apoptosis (TUNEL) ([2]; paclitaxel 600 ng/ml alone, 48 hours): 54.8%
inhibition at 0.6 µg/mL [3, 20]: 16%
cells blocked in the G2-M phase ([4]; 24 hours): 61.8%
cells blocked in the G2-M phase ([4]; 48 hours): 58.2%
hypodiploid (sub-G1) cell population ([5]; 0.6 and 6.0 ng/ml paclitaxel each): approximately 25%
cell population in S phase ([5]; paclitaxel 0.6 ng/ml alone): 31.8%
decrease of cells in the G0–G1 phase ([5]; paclitaxel 0.6 ng/ml alone): 13.3%
total cell population in the G2-M phase ([5]; paclitaxel 0.6 ng/ml alone): 22.2%
cell population in S phase ([5]; paclitaxel 6.0 ng/ml alone): 27%
decrease of cells in the G0–G1 phase ([5]; paclitaxel 6.0 ng/ml alone): 23.5%
total cell population in the G2-M phase ([5]; paclitaxel 6.0 ng/ml alone): 38.2%
increase in the G2-M cell population vs untreated control ([5]; paclitaxel 0.6 or 6.0 ng/ml alone): 2–3 fold
concentrations that effectively blocked thymidine incorporation ([6]; 10% fetal bovine serum): higher than 0.06 ng/ml
inhibition at 0.0006 µg/mL ([6]; Homo sapiens, Jurkat, read-out: growth inhibition): 56.5%
[3H]thymidine uptake counts ± SD ([6]; Taxol 0.6 ng/ml, Experiment 1): 52675 ± 7478 cpm
[3H]thymidine uptake counts ± SD ([6]; Taxol 0.6 ng/ml, Experiment 2): 95563 ± 6427 cpm
[3H]thymidine uptake counts ± SD ([6]; Taxol 0.6 ng/ml, Experiment 3): 22771 ± 5113 cpm
[3H]thymidine uptake counts ± SD ([6]; Taxol 0.6 ng/ml, Experiment 4): 89621 ± 17579 cpm
[3H]thymidine uptake counts ± SD ([6]; Taxol 0.6 ng/ml, Experiment 5): 98694 ± 32045 cpm
[3H]thymidine uptake counts ± SD ([6]; Taxol 6.0 ng/ml, Experiment 1): 16592 ± 782 cpm
[3H]thymidine uptake counts ± SD ([6]; Taxol 6.0 ng/ml, Experiment 2): 33443 ± 17976 cpm
[3H]thymidine uptake counts ± SD ([6]; Taxol 6.0 ng/ml, Experiment 3): 13400 ± 849 cpm
[3H]thymidine uptake counts ± SD ([6]; Taxol 6.0 ng/ml, Experiment 4): 35466 ± 7576 cpm
[3H]thymidine uptake counts ± SD ([6]; Taxol 6.0 ng/ml, Experiment 5): 10295 ± 353 cpm
ED50 (cell growth inhibition) ([6]; paclitaxel alone, n=5, 3-day exposure assay): approximately 0.5 ng/ml
effect of serum level on growth inhibition ([6]; paclitaxel alone, serum 10% to 1%): unaffected by variation of serum levels
inhibition at 0.6 µg/mL [7, 20]: 2%
ID50 (cytotoxicity) ([8]; paclitaxel, most tumor cell lines tested): 0.006 to 0.06 µg/mL
Tumor Size (mm^2) at Week 5 [9]: 176.0 ± 90.3 mm^2
reduction in tumor growth / tumor size vs vehicle control [9]: 11.1%
inhibition at 0.6 µg/mL [10, 20]: 55%
inhibition at 0.6 µg/mL ([11]; Homo sapiens, HT-29, read-out: % Growth Inhibition): 16%
apoptosis (TUNEL) ([12]; 0.6 ng/ml of paclitaxel): 19.6%
ED50 (cytotoxicity, MTT) ([13]; paclitaxel alone): 1.92 ± 1.2 µg/mL (≈ 2.25 µM)
dose related toxicity ([18]; 250 mg/m^2): severe
complete response rate [18, 21]: 12%
partial response rate [18, 21]: 44%
number of cells in G2/M phase ([19]; higher than ID50 paclitaxel concentrations): 38%
cells blocked in G2/M phase of the cell cycle ([19]; lower than ID50 paclitaxel concentrations (0.6–6.0 ng/ml)): greater than 55%
inhibition at 0.6 µg/mL [14, 20]: 10%
tumor growth compared with control ([15]; paclitaxel alone 120 μg/0.1 mL s.c. thrice weekly): grew aggressively in control and paclitaxel treated mice almost equally; also recorded: equivalent growth
tumor size / tumor burden reduction in comparison to control (vehicle) [16]: 29%
morphological changes (Wright's stain) ([17]; 0.6 and 6.0 ng/ml of paclitaxel alone): apoptotic bodies were noted amid cell shrinkage and nuclear and membrane blebbing

Source: patent US7015251B1 (priority 1999, dated 2006)
